Results from US20100204045A1, “Systemicity Enhancers” (BASF SE, priority 2007, published 2010).

Test system: aphids
Experiment: Root systemicity of fipronil with polymers: wheat plants in vermiculite drenched, infested with aphids, aphid population counted
Assay type: in vivo, aphids on wheat plants
Conditions: 4 days after infestation, relative to plants not treated with fipronil
Protocol: To test the root systemicity of fipronil with polymers according to the invention, wheat plants in vermiculite were drenched with 20 ml fipronil/polymer (1:1 wt) solutions in Hoagland solution/acetone mixtures (0.6 v % acetone). Two fipronil and polymer concentrations were used, 3 ppm and 6 ppm. As reference fipronil solutions in Hoagland solution/acetone mixtures without polymer were used. Hoagland solution consists of the following ingredients:
0.25 v % of 1M KNO3 solution in water, 0.1 v % of 1 M MgSO4 solution in water, 0.05 v % of 1M KH2PO4 solution in water, 0.25 v % 1M Ca(NO3)2) solution in water, 0.05 v % of a trace solution consisting of 2.86 g/l H3BO3, 1.81 g/l MnCl2*4H2O, 0.22 g/l ZnSO4*7H2O, 0.08 g/l CuSO4*5H2O, 0.016 g/l MoO3 in water, 0.075 v % Sequestrene 138 Fe consisting of 30 g/l sodium ferric ethylenediamine di-(o-hydroxyphenylacetate) in water, 99.225 v % water sterilized and pH adjusted to 6-6.5 with NaOH.
The plants were then infested with aphids. After 4 days the aphid population on the wheat plants was counted. The results of fipronil and fipronil with polymer are related to the aphid population on plants that had not been treated with fipronil.

Q: For `N#Cc1nn(-c2c(Cl)cc(C(F)(F)F)cc2Cl)c(N)c1[S+]([O-])C(F)(F)F` (stereo not shown) [Reference A, fipronil], which Aphid population (Table 1, 3 ppm fipronil (and polymer, 1:1 wt)) is on record?
A: The Aphid population was 51%.

Q: And the Aphid population (Table 1, 6 ppm fipronil (and polymer, 1:1 wt))?
A: Its Aphid population is 23%.

Q: What about the Aphid population (Table 2, 3 ppm fipronil (and polymer, 1:1 wt)) of the same molecule?
A: The Aphid population was 23%.

Q: And the Aphid population (Table 2, 6 ppm fipronil (and polymer, 1:1 wt))?
A: The Aphid population was 12%.
